The source of these data is US20160176867A1, “MODIFIED BET-PROTEIN-INHIBITING DIHYDROQUINOXALINONES AND DIHYDROPYRIDOPYRAZINONES” (BAYER PHARMA AKTIENGESELLSCHAFT, priority 2013, published 2016).

pIC50: −log10 of the molar value.

This test has as its target T1, BRD4 bromo domain 1 [BRD4(1)] (Homo sapiens, UniProt O60885).
T1 construct: N-terminally His6-tagged BRD4(1) (amino acids 67-152); made in house; host or cells: E. coli
Description: BRD4/acetylated peptide H4 binding assay (TR-FRET), BRD4 bromo domain 1. Particulars: inhibition of BRD4(1)/Ac-H4 peptide interaction. The gist of the method:
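TR-FRET (665/620 nm ratio) measuring displacement of biotinylated tetra-acetylated H4 peptide from His6-BRD4(1) (aa 67-152, E. coli; typically 10 nM) at pH 7.5. Compound (11 concentrations, 0.1 nM–20 μM, duplicates) was preincubated 10 min at 22°C, then 1 h at 22°C and ≥3 h at 4°C; IC50 from 4-parameter fit normalized to DMSO and no-BRD4 controls.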
On the technique in general: In TR-FRET formats the signal depends on donor and acceptor labels being close together.
The pIC50 is −log10 of the IC50, conventionally taken in molar units. Low readings indicate a high IC50, high ones a low IC50. For `CC1C(=O)N(C)c2ccc(Nc3cccc(C(=O)NC4CCN(C)CC4)c3)nc2N1c1ccccc1` (racemic) [Example 104, 3-[(1,3-dimethyl-2-oxo-4-phenyl-1,2,3.4-tetrahydropyrido[2,3-b]pyrazin-6-yl)amino]-A-(1-methylpiperidin-4-yl)benzamide], the pIC50 is 6.02.
In turn, `C[C@@H]1C(=O)N(C)c2ccc(Nc3cccc(C(=O)N4CCN(C)CC4)c3)nc2N1C1CCCC1` [Example 1, (3R)-4-Cyclopentyl-1,3-dimethyl-6-({3-[(4-methylpiperazin-1-yl)carbonyl]phenyl}amino)-3,4-dihydropyrido[2,3-b]pyrazin-2(1H)-one] showed a negative-log IC50 (pIC50) of 7.17. This pIC50 lies 1.15 log units higher than the previous one.
The same measure for `C[C@@H]1C(=O)N(C)c2ccc(Nc3cccc(C(=O)NC4CCN(C)CC4)c3)nc2N1C1CCCC1` [Example 2, 3-{[(3R)-4-Cyclopentyl-1,3-dimethyl-2-oxo-1,2,3,4-tetrahydropyrido[2,3-b]pyrazin-6-yl]amino}-N-(1-methylpiperidin-4-yl)benzamide]: 7.03; for `C[C@@H]1C(=O)N(C)c2ccc(Nc3cccc(C(=O)NC4CN(C)C4)c3)nc2N1C1CCCC1` [Example 3, 3-{[(3R)-4-Cyclopentyl-1,3-dimethyl-2-oxo-1,2,3,4-tetrahydropyrido[2,3-b]pyrazin-6-yl]amino}-N-(1-methylazetidin-3-yl)benzamide]: 7.04; for `C[C@@H]1C(=O)N(C)c2ccc(Nc3cccc(C(=O)NCCN(C)C)c3)nc2N1C1CCCC1` [Example 4, 3-{[(3R)-4-Cyclopentyl-1,3-dimethyl-2-oxo-1,2,3,4-tetrahydropyrido[2,3-b]pyrazin-6-yl]amino}-N-[2-(dimethylamino)ethyl]benzamide]: 6.84.
The compound `C[C@@H]1C(=O)N(C)c2ccc(Nc3cccc(C(=O)N[C@H]4CC[C@H](N5CCN(CC6CC6)CC5)CC4)c3)nc2N1C1CCCC1` [Example 5, 3-{[(3R)-4-Cyclopentyl-1,3-dimethyl-2-oxo-1,2,3,4-tetrahydropyrido[2,3-b]pyrazin-6-yl]amino}-N-{trans-4-[4-(cyclopropylmethyl)piperazin-1-yl]cyclohexyl}benzamide] had a pIC50 of 7.00.
Next, `C[C@@H]1C(=O)N(C)c2ccc(Nc3cccc(S(=O)(=O)N(C)C)c3)nc2N1C1CCOCC1` [Example 6, 3-{[(3R)-1,3-Dimethyl-2-oxo-4-(tetrahydro-2H-pyran-4-yl)-1,2,3,4-tetrahydropyrido[2,3-b]pyrazin-6-yl]amino}-N,N-dimethylbenzenesulphonamide]: 7.57.
Next, `C[C@@H]1C(=O)N(C)c2ccc(Nc3cccc(S(=O)(=O)N(C)C)c3)cc2N1C1CCOCC1` [Example 7, 3-{[(3R)-1,3-Dimethyl-2-oxo-4-(tetrahydro-2H-pyran-4-yl)-1,2,3,4-tetrahydroguinoxalin-6-yl]amino}-N,N-dimethylbenzenesulphonamide]: 7.34.
For `C[C@@H]1C(=O)N(C)c2ccc(Nc3cccc(S(=O)(=O)N4CCOCC4)c3)cc2N1C1CCOCC1` [Example 8, (3R)-1,3-Dimethyl-6-{[3-(morpholin-4-ylsulphonyl)phenyl]amino}-4-(tetrahydro-2H-pyran-4-yl)-3,4-dihydroquinoxalin-2(1H)-one], the pIC50 is 7.10.
Next, `C[C@@H]1C(=O)N(C)c2ccc(Nc3cccc(S(=O)(=O)N4CCOCC4)c3)nc2N1C1CCOCC1` [Example 9, (3R)-1,3-Dimethyl-6-{[3-(morpholin-4-ylsulphonyl)phenyl]amino}-4-(tetrahydro-2H-pyran-4-yl)-3,4-dihydropyrido[2,3-b]pyrazin-2(1H)-one]: 7.55; `COc1ccc(CN2c3cc(Nc4cccc(S(=O)(=O)N(C)C)c4)ccc3N(C)C(=O)[C@H]2C)cc1` [Example 10, 3-{[(3R)-4-(4-Methoxybenzyl)-1,3-dimethyl-2-oxo-1,2,3,4-tetrahydroquinoxalin-6-yl]amino}-N,N-dimethylbenzenesulphonamide]: 6.80.
In turn, `C[C@@H]1C(=O)N(C)c2ccc(Nc3cccc(S(=O)(=O)N4CCN(C)CC4)c3)nc2N1C1CCOCC1` [Example 12, (3R)-1,3-Dimethyl-6-({3-[(4-methylpiperazin-1-yl)sulphonyl]phenyl}amino)-4-(tetrahydro-2H-pyran-4-yl)-3,4-dihydropyrido[2,3-b]pyrazin-2(1H)-one] had a negative-log IC50 (pIC50) of 7.25. Against the preceding compound, the pIC50 is 0.45 log units higher.
Next, `C[C@@H]1C(=O)N(C)c2ccc(Nc3cccc(C(=O)NC4CCN(C)CC4)c3)nc2N1C1CCOCC1` [Example 13, 3-{[(3R)-1,3-Dimethyl-2-oxo-4-(tetrahydro-2H-pyran-4-yl)-1,2,3,4-tetrahydropyrido[2,3-b]pyrazin-6-yl]amino}-N-(1-methylpiperidin-4-yl)benzamide]: 6.49; `C[C@@H]1C(=O)N(C)c2ccc(Nc3cccc(C(=O)N[C@H]4CC[C@H](N5CCN(CC6CC6)CC5)CC4)c3)nc2N1C1CCOCC1` [Example 14, N-{trans-4-[4-(Cyclopropylmethyl)piperazin-1-yl]cyclohexyl}-3-{[(3R)-1,3-dimethyl-2-oxo-4-(tetrahydro-2H-pyran-4-yl)-1,2,3,4-tetrahydropyrido[2,3-b]pyrazin-6-yl]amino}benzamide]: 6.84; `C[C@@H]1C(=O)N(C)c2ccc(Nc3cccc(C(=O)N4CCN(C)CC4)c3)nc2N1C1CCOCC1` [Example 15, (3R)-1,3-Dimethyl-6-({3-[(4-methylpiperazin-1-yl)carbonyl]phenyl}amino)-4-(tetrahydro-2H-pyran-4-yl)-3,4-dihydropyrido[2,3-b]pyrazin-2(1H)-one]: 6.97.
Next, `C[C@@H]1C(=O)N(C)c2ccc(Nc3cccc(S(=O)(=O)NC4CCN(C)CC4)c3)nc2N1C1CCOCC1` [Example 20, 3-{[(3R)-1,3-Dimethyl-2-oxo-4-(tetrahydro-2H-pyran-4-yl)-1,2,3,4-tetrahydropyrido[2,3-b]pyrazin-6-yl]amino}-N-(1-methylpiperidin-4-yl)benzenesulphonamide]: 7.24.
For the compound `C[C@@H]1C(=O)N(C)c2ccc(Nc3cccc(S(=O)(=O)NCCN(C)C)c3)nc2N1C1CCOCC1` [Example 21], the pIC50 is 7.32.
The same measure for `CC(C)N1c2nc(Nc3cccc(S(=O)(=O)N[C@H]4CC[C@H](N5CCN(CC6CC6)CC5)CC4)c3)ccc2N(C)C(=O)[C@H]1C` [Example 34, N-{trans-4-[4-(cyclopropylmethyl)piperazin-1-yl]cyclohexyl}-3-{[(3R)-4-isopropyl-1,3-dimethyl-2-oxo-1,2,3,4-tetrahydropyrido[2,3-b]pyrazin-6-yl]amino}-benzenesulphonamide]: 7.64; for `C[C@@H]1C(=O)N(C)c2ccc(Nc3cccc(S(=O)(=O)N[C@H]4CC[C@H](N5CCN(CC6CC6)CC5)CC4)c3)nc2N1C1CCOCC1` [Example 35, N-{trans-4-[4-(cyclopropylmethyl)-piperazin-1-yl]cyclohexyl}-3-{[(3R)-1,3-dimethyl-2-oxo-4-(tetrahydro-2H-pyran-4-yl)-1,2,3,4-tetrahydropyrido[2,3-b]pyrazin-6-yl]amino}-benzenesulphonamide]: 7.59; for `CC(C)N1c2nc(Nc3cccc(S(=O)(=O)N4CCN(C)CC4)c3)ccc2N(C)C(=O)[C@H]1C` [Example 43, (3R)-4-isopropyl-1,3-dimethyl-6-({3-[(4-methylpiperazin-1-yl)sulphonyl]phenyl}-amino)-3,4-dihydropyrido-[2,3-b]pyrazin-2(1H)-one]: 7.31.
The same measure for `CC(C)N1c2nc(Nc3cccc(S(=O)(=O)NC4CCN(C)CC4)c3)ccc2N(C)C(=O)[C@H]1C` [Example 51, 3-{[(3R)-4-isopropyl-1,3-dimethyl-2-oxo-1,2,3,4-tetrahydropyrido[2,3-b]pyrazin-6-yl]amino}-N-(1-methylpiperidin-4-yl)benzenesulphonamide]: 7.11.
Next, `CC(C)N1c2nc(Nc3cccc(S(=O)(=O)NCCN(C)C)c3)ccc2N(C)C(=O)[C@H]1C` [Example 55, N-[2-(dimethylamino)-ethyl]-3-{[(3R)-4-isopropyl-1,3-dimethyl-2-oxo-1,2,3,4-tetrahydro-pyrido[2,3-b]pyrazin-6-yl]amino}benzene-sulphonamide]: 6.95; `CC(C)N1c2nc(Nc3cccc(C(=O)N4CCN(C)CC4)c3)ccc2N(C)C(=O)[C@H]1C` [Example 77, (3R)-4-isopropl-1,3-dimethyl-6-({3-[(4-methylpiperazin-1-yl)carbonyl]phenyl}-amino)-3,4-dihydro-pyrido[2,3-b]pyrazin-2(1H)-one]: 6.84.
The compound `CC(C)N1c2nc(Nc3cccc(C(=O)N[C@H]4CC[C@H](N5CCN(CC6CC6)CC5)CC4)c3)ccc2N(C)C(=O)[C@H]1C` [Example 79, N-{trans-4-[4-(cyclo-propylmethyl)piperazin-1-yl]cyclohexyl}-3-{[(3R)-4-isopropyl-1,3-dimethyl-2-oxo-1,2,3,4-tetrahydropyrido[2,3-b]pyrazin-6-yl]amino}benzamide] gave a pIC50 of 6.71.
The same measure for `CC(C)N1c2nc(Nc3cccc(C(=O)N4CCN(CC5CC5)CC4)c3)ccc2N(C)C(=O)[C@H]1C` [Example 88, (3R)-6-[(3-{[4-(cyclo-propylmethyl)piperazin-1-yl]carbonyl}phenyl)amino]-4-isopropyl-1,3-dimethyl-3,4-dihydropyrido[2,3-b]pyrazin-2(1H)-one]: 6.42.
The same measure for `Cc1nnc(-c2cccc(Nc3ccc4c(n3)N(C3CCOCC3)[C@H](C)C(=O)N4C)c2)o1` [Example 134, (3R)-1,3-Dimethyl-6-{[3-(5-methyl-1,3,4-oxadiazol-2-yl)phenyl]amino}-4-(tetrahydro-2H-pyran-4-yl)-3,4-dihydropyrido[2,3-b]pyrazin-2(1H)-one]: 6.75.
